Test results as given in US10221163B2 (priority 2015, dated 2019).

Legend:
[1] = test system: Pseudomonas aeruginosa efflux+ (MB9798), IMP-1; format: cell-based; design: Concentration of metallo-β-lactamase inhibitor which restores susceptibility of efflux + (MB9798) strain to imipenem: unit not given here; conditions: C, D serine β-lactamase inhibitor closely related to relebactam; for P. aeruginosa expressing IMP-1, efflux + (MB9798) MITC95: concentration restoring susceptibility to imipenem at 2 μg/mL in the presence of a class A; for Concentration of metallo-β-lactamase inhibitor which restores susceptibility of efflux + (MB9798) strain to imipenem: imipenem at 2 μg/mL, in the presence of a class A
Description: (§1) The strain background was Pseudomonas aeruginosa PAO1.
(§2) The strain set was then used as a pair to determine the effect of metallo-β-lactamase inhibitors of Formula I on the MIC of imipenem and/or ceftazidime. A fixed concentration of antibiotic was included in standard microbroth MIC tests, usually at the CLSI (Clinical and Laboratory Standards Institute) breakpoint concentration. A fixed amount of a class A/C beta-lactamase inhibitor was also included to inhibit the resident Pseudomonas AmpC enzyme. A serial titration of the metallo-β-lactamase inhibitor was included and the concentration of metallo-β-lactamase inhibitor which restores susceptibility of the strain to the included antibiotic was recorded. That concentration of metallo-β-lactamase inhibitor was then compared between the two strains to determine the fold difference between the efflux+ (MB9798) and efflux− (MB9799) strains. This was taken as an indication of the extent to which the MBLi is subject to efflux.

[2] = test system: Pseudomonas aeruginosa efflux− (MB9799), IMP-1; format: cell-based; conditions: C, D serine β-lactamase inhibitor closely related to relebactam; for P. aeruginosa expressing IMP-1, efflux − (MB9799) MITC95: concentration restoring susceptibility to imipenem at 2 μg/mL in the presence of a class A; for Concentration of metallo-β-lactamase inhibitor which restores susceptibility of efflux − (MB9799) strain to imipenem: imipenem at 2 μg/mL, in the presence of a class A
Description: as §1, §2

IMP-1 = IMP-1 (Serratia marcescens, UniProt P52699); assay: biochemical; format: biochemical; conditions: fluorescence assay, CCF2-FA substrate, 2 pM enzyme, 2 hours at 25° C.; read-out: IMP-1 IC50
Protocol: (§3) Enzyme Activity: Determination of IC50
(§4) The Class B enzyme activities were measured in the presence of the test inhibitor in a fluorescence assay against a commercially available substrate consisting of a cephalosporin core linking 7-hydroxycoumarin to fluorescein (CCF2-FA). […] In a 384-well microplate, the test inhibitor was incubated with the metallo-β-lactamase enzyme and the substrate for 2 hours at 25° C. […] The IC50 value was determined from semi-logarithmic plots of enzyme inhibition versus inhibitor concentration, with a curve generated using a 4-parameter fit.

NDM-1 = NDM-1 (Klebsiella pneumoniae, UniProt C7C422); assay: biochemical; format: biochemical; conditions: fluorescence assay, CCF2-FA substrate, 1 pM enzyme, 2 hours at 25° C.; read-out: NDM-1 IC50
Protocol: as §3, §4

[3] = test system: Klebsiella pneumoniae expressing VIM-1 (IHMA599644); format: cell-based; conditions: for Klebsiella pneumoniae MITC95: VIM-1 strain IHMA599644, with imipenem 1 μg/ml, 95% inhibition of growth
Protocol: (§5) Antibiotic Potentiation Activity: Determination of Synergistic Concentration
(§6) The bacterial strains tested included the clinical strains Escherichia coli expressing NDM-1 (CLB30005, CLB30016), Serratia marcescens expressing IMP-1 (CL5741), and Klebsiella pneumoniae expressing VIM-1 (IHMA599644). Inhibitor activity was measured in the presence and absence of imipenem in a 384-well microplate.
(§7) The clinical strains CLB30016, CL5741 and IHMA599644 were grown on trypticase soy agar containing 5% sheep's blood. The bacteria on agar plates were incubated at 35° C. with humidity overnight. The following day, individual colonies from each clinical strain were picked and resuspended in 5 ml saline to attain an OD600 of […], for CLB30016, CL5741 and IHMA599644, respectively. These were further diluted 1:100 into 1.1×CAMHB and used to inoculate the test wells as described below.
(§8) Imipenem in 10 mM 3-(N-morpholino)propanesulfonic acid (MOPS, pH 7) was stored in single use aliquots at −80° C. […] On the day of the assay, 4 μl of antibiotic was added to 45 ul of bacteria followed by 1 μl of test compound and mixed by pipetting and with an orbital shaker. The concentration of antibiotic used in the assay was 1 μg/ml. Microplates were covered and incubated at 35° C. for 22 hours to 24 hours. At the end of the incubation, absorbance was determined using a spectrophotometer.

[4] = test system: Serratia marcescens expressing IMP-1 (CL5741); format: cell-based; conditions: for Serratia marcescens MITC95: IMP-1 strain CL5741, with imipenem 1 μg/ml, 95% inhibition of growth
Protocol: as §5, §6, §7, §8

[5] = test system: Escherichia coli expressing NDM-1 (CLB30005, CLB30016); format: cell-based; conditions: with imipenem 1 μg/ml; for Escherichia coli MITC95: NDM-1 strain, 95% inhibition of growth
Protocol: as §5, §6, §7, §8

[6] = with imipenem 1 μg/ml, 95% inhibition of bacterial growth

Sequence of NDM-1 (C7C422 whole entry, looked up, species assumed): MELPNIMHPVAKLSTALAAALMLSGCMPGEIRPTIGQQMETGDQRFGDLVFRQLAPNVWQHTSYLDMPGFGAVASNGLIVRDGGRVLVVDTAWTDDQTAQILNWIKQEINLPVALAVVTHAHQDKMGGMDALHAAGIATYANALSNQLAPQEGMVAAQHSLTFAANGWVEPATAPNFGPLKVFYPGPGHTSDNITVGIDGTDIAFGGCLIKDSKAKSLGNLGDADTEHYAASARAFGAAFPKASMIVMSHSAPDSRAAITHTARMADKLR
Sequence of IMP-1 (P52699 whole entry, looked up, species assumed): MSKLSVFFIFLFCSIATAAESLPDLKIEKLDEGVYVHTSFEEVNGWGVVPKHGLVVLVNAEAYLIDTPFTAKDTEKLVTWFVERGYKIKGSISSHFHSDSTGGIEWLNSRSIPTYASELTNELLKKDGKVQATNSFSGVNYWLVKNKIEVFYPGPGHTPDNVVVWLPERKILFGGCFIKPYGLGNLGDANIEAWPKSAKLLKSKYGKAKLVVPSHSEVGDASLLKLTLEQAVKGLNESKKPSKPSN

SMILES	P. aeruginosa expressing IMP-1, efflux + (MB9798) MITC95 [1] [µM]	P. aeruginosa expressing IMP-1, efflux − (MB9799) MITC95 [2] [µM]	IC50 (IMP-1) [nM]	IC50 (NDM-1) [nM]	Klebsiella pneumoniae expressing VIM-1 (IHMA599644) MITC95 [3, 6] [µM]	Serratia marcescens expressing IMP-1 (CL5741) MITC95 [4, 6] [µM]	Escherichia coli expressing NDM-1 (CLB30016) MITC95 ([5]; 95% inhibition of bacterial growth) [µM]	Klebsiella pneumoniae MITC95 [3] [µM]	Serratia marcescens MITC95 [4] [µM]	Escherichia coli MITC95 [5] [µM]	Concentration of metallo-β-lactamase inhibitor which restores susceptibility of efflux + (MB9798) strain to imipenem [1]	Concentration of metallo-β-lactamase inhibitor which restores susceptibility of efflux − (MB9799) strain to imipenem [2]
NCCNS(=O)(=O)c1ccc(-c2cccc(-c3nc[nH]n3)c2)c(-c2nn[nH]n2)c1S(N)(=O)=O [Example 224, N^4-(2-aminoethyl)-2-(2H-tetrazol-5-yl)-3′-(1H-1,2,4-triazol-3-yl)-[1,1′-biphenyl]-3,4-disulfonamide]	1.563	0.7813	0.412	0.142	3.125	1.563	1.563					
C[N+]1(CCN)CC[C@@H](NS(=O)(=O)c2ccc(-c3cccc4[nH]c(N)nc34)c(-c3nn[nH]n3)c2S(N)(=O)=O)C1.O=CO[O-] (stereo partly drawn) [Example 248, (3R)-3-{[4-(2-amino-1H-1,3-benzodiazol-4-yl)-2-sulfamoyl-3-(2H-1,2,3,4-tetrazol-5-yl)benzene]sulfonamido}-1-(2-aminoethyl)-1-methylpyrrolidin-1-ium; methaneperoxoate]	0.7813	0.7813	0.147	0.0105				0.7813	1.563	0.3906		
NCC(=O)NC1C=C(c2ccc(S(=O)(=O)N[C@@H]3CCNC3)c(S(N)(=O)=O)c2-c2nn[nH]n2)CCC1 (stereo partly drawn) [Example 269, 2-Amino-N-(4′-(N—((R)-pyrrolidin-3-yl)sulfamoyl)-3′-sulfamoyl-2′-(2H-tetrazol-5-yl)-3,4,5,6-tetrahydro-[1,1′-biphenyl]-3-yl)acetamide]	3.125	1.563	4.03	1.17				3.125	1.563	1.563		
Cn1nnc2c(-c3ccc(S(=O)(=O)N[C@H]4CCNC4)c(S(N)(=O)=O)c3-c3nn[nH]n3)cccc21 [Example 293, (S)-4-(1-methyl-1H-benzo[d][1,2,3]triazol-4-yl)-N1-(pyrrolidin-3-yl)-3-(2H-tetrazol-5-yl)benzene-1,2-disulfonamide]	3.125	1.563	1.3	0.285				3.125	3.125	3.125		
NC[C@H](N)CNS(=O)(=O)c1ccc(-c2cccn3ccnc23)c(-c2nn[nH]n2)c1S(N)(=O)=O [Example 374, (S)-N1-(2,3-diaminopropyl)-4-(imidazo[1,2-a]pyridin-8-yl)-3-(2H-tetrazol-5-yl)benzene-1,2-disulfonamide]	1.563	1.563	0.278	0.157				6.25	3.125	0.7813		
Nc1nc2c(-c3ccc(S(=O)(=O)NCC4(O)CNC4)c(S(N)(=O)=O)c3-c3nn[nH]n3)cccc2s1 [Example 387, 4-(2-amino-1,3-benzothiazol-4-yl)-N^1-[(3-hydroxyazetidin-3-yl)methyl]-3-(2H-tetrazol-5-yl)benzene-1,2-disulfonamide]	0.7813	1.563	0.244	0.0646				6.25	1.563	1.563		
C[N+](C)(C)CCCNS(=O)(=O)c1ccc(-c2cccc3sc(N)nc23)c(-c2nnn[nH]2)c1S(N)(=O)=O.O=C([O-])C(F)(F)F [Example 392, 3-({[4-(2-amino-1,3-benzothiazol-4-yl)-2-sulfamoyl-3-(1H-tetrazol-5-yl)phenyl]sulfonyl}amino)-N,N,N-trimethylpropan-1-aminium trifluoroacetate]			0.221	0.0318				12.5	3.125	3.125	1.563	3.125
C[C@H](CN)NS(=O)(=O)c1ccc(-c2cc(F)cc3[nH]c(N)nc23)c(-c2nn[nH]n2)c1S(N)(=O)=O [Example 396]			0.221	0.0269				3.125	0.3906	0.7813	0.7813	1.563
C[C@@H](CN)NS(=O)(=O)c1ccc(-c2cc(F)cc3[nH]c(N)nc23)c(-c2nn[nH]n2)c1S(N)(=O)=O [Example 397]			1.6	0.161				3.125	0.7813	3.125	1.563	1.563
Nc1nc2c(-c3ccc(S(=O)(=O)N[C@H]4CCNC4)c(S(N)(=O)=O)c3-c3nn[nH]n3)cc(F)cc2[nH]1 [Example 399]			0.533	0.0822				1.563	1.563	0.7813	0.7813	0.7813
NC[C@@H](O)CNS(=O)(=O)c1ccc(-c2ccnc(N)c2)c(-c2nn[nH]n2)c1S(N)(=O)=O [Example 419]			1.51	0.496				1.563	0.7813	0.1953	1.563	0.7813
C[C@H](N)CNS(=O)(=O)c1ccc(-c2ccnc(N)c2)c(-c2nn[nH]n2)c1S(N)(=O)=O [Example 421]			1.14	0.196				1.563	0.7813	0.3906	1.563	0.7813
C[C@@H](N)CNS(=O)(=O)c1ccc(-c2ccnc(N)c2)c(-c2nn[nH]n2)c1S(N)(=O)=O [Example 422]			0.982	0.386				1.563	0.7813	0.3906	1.563	0.7813
